Tests used:
adenosine A2B receptor = adenosine A2B receptor (Homo sapiens (Human), UniProt P29275); test: Adenosine receptor activity assay (Table 1), A2B activity; type: biochemical; conditions: for Ratio: A2A activity to A2B activity (A2A/A2B); for IC50: read-out: Ave A2B cAMP IC50
[1] = test system: CYP 450 (isoform not given); test: CYP450 inhibition at 10 μM; type: in vitro ADME; conditions: read-out: CYP 450 % INH @ 10 μM
adenosine A3 receptor [2] = molecular target: T1, adenosine A3 receptor (Homo sapiens (Human), UniProt P0DMS8); test: Adenosine receptor activity assay (Table 1), A3 cAMP; type: cell-based
[3] = Hepatocyte intrinsic clearance, rat; type: in vitro ADME; conditions: hepatocytes
adenosine A1 receptor [4] = molecular target: T2, adenosine A1 receptor (Homo sapiens (Human), UniProt P30542); test: Adenosine receptor activity assay (Table 1), A1 cAMP; type: cell-based
adenosine A2A receptor = adenosine A2A receptor (Homo sapiens (Human), UniProt P29274); test: Adenosine receptor activity assay (Table 1), A2A activity; type: biochemical; conditions: read-out: Ave A2A cAMP IC50
[5] = Hepatocyte intrinsic clearance, human; type: in vitro ADME; conditions: hepatocytes
[6] = Liver microsome (LM) intrinsic clearance, rat; type: in vitro ADME
[7] = Hepatocyte (Hep) intrinsic clearance, rat; type: in vitro ADME; conditions: hepatocytes
adenosine A3 receptor [8] = molecular target: T1, adenosine A3 receptor; test: A3 cAMP IC50 assay (Table 1); type: biochemical
CYP3A4 = CYP3A4 (Homo sapiens (Human), UniProt P08684); test: CYP450 inhibition at 10 μM, CYP3A4; type: in vitro ADME; conditions: human, 10 μM, read-out: CYP 450 % INH @ 10 μM
adenosine A1 receptor [9] = molecular target: T2, adenosine A1 receptor; test: A1 cAMP IC50 assay (Table 1); type: biochemical
[10] = Liver microsome (LM) intrinsic clearance, human; type: in vitro ADME
[11] = Hepatocyte (Hep) intrinsic clearance, human; type: in vitro ADME; conditions: hepatocytes
CYP2D6 = CYP2D6 (Homo sapiens (Human), UniProt P10635); test: CYP450 inhibition at 10 μM, CYP2D6; type: in vitro ADME; conditions: read-out: CYP 450 % INH @ 10 μM
Chain of CYP2D6 (P10635 whole entry): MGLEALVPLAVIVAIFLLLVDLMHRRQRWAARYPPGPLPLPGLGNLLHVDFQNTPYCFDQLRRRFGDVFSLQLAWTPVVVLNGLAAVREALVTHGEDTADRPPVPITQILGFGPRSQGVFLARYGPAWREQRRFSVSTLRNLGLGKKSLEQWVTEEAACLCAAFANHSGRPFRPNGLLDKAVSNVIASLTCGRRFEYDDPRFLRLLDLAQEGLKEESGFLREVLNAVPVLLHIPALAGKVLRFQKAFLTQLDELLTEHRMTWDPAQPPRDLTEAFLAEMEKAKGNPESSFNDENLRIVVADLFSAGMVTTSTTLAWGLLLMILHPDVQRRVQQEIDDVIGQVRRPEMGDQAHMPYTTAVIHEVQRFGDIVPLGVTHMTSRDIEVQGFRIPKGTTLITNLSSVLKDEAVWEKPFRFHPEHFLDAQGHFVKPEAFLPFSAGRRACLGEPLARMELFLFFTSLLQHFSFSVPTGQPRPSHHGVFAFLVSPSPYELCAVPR

Chain of adenosine A2B receptor (P29275 whole entry, canonical isoform): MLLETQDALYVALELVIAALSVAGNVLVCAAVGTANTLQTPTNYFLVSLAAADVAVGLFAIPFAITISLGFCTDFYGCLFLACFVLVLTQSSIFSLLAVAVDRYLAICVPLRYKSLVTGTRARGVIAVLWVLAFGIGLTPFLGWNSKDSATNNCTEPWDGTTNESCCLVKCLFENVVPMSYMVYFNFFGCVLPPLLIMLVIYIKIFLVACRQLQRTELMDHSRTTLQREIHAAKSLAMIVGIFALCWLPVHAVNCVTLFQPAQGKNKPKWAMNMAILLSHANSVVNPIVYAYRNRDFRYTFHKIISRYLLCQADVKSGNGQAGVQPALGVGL
T1 sequence (P0DMS8 whole entry): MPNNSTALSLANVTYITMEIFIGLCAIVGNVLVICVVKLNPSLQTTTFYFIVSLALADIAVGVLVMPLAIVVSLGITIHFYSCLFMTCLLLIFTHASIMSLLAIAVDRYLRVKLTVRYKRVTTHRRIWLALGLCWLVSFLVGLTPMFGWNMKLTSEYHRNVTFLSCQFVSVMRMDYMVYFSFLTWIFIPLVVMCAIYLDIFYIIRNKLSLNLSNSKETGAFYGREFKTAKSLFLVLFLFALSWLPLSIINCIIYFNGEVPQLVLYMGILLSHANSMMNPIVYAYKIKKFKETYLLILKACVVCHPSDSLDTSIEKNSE
T2 sequence (P30542 whole entry): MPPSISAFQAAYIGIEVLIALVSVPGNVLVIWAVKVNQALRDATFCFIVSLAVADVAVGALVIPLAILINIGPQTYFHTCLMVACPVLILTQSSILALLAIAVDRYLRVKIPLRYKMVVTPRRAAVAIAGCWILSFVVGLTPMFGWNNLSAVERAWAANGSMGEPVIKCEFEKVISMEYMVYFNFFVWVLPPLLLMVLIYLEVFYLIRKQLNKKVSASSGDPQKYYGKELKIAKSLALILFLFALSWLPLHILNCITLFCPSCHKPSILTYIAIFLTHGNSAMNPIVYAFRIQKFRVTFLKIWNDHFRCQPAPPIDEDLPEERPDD
Chain of adenosine A2A receptor (P29274 whole entry): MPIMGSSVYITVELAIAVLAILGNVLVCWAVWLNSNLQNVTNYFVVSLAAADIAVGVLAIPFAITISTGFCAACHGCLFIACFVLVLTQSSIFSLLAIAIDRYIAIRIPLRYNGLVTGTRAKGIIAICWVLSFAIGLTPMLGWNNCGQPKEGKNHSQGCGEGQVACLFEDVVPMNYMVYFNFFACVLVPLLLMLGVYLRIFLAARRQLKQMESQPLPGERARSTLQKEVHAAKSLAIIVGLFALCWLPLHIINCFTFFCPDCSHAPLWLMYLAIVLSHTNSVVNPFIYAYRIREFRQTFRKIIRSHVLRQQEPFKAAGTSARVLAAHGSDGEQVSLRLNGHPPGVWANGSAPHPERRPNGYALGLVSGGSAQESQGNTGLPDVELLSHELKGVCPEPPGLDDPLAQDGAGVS
Chain of CYP3A4 (P08684 whole entry): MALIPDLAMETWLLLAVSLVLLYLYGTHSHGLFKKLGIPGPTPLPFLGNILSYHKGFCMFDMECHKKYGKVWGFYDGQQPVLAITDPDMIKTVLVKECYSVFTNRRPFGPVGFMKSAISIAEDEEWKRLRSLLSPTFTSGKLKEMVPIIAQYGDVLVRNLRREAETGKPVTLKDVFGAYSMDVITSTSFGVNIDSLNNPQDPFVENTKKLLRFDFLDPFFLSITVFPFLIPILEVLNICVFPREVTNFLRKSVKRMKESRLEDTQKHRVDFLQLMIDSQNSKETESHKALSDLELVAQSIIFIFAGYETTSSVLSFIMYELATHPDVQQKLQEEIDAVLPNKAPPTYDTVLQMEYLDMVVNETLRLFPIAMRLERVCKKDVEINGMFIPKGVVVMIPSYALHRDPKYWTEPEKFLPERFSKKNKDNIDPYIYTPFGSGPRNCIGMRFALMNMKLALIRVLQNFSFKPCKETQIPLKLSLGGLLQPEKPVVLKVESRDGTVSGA

| Ratio (adenosine A2B receptor) | IC50 (adenosine A2B receptor) [µM] | inhibition at 10 µM [1] [%] | IC50 (adenosine A3 receptor [2]) [µM] | hepatocyte CLint [3] [µL/min/1e6 cells] | IC50 (adenosine A1 receptor [4]) [µM] | IC50 (adenosine A2A receptor) [µM] | hepatocyte CLint [5] [µL/min/1e6 cells] | LM CLint [6] [μL/min/mg/protein] | hepatocyte CLint [7] [µL/min/1e6 cells] | IC50 (adenosine A3 receptor [8]) [µM] | inhibition at 10 µM (CYP3A4) [%] | IC50 (adenosine A1 receptor [9]) [µM] | LM CLint [10] [μL/min/mg/protein] | hepatocyte CLint [11] [µL/min/1e6 cells] | inhibition at 10 µM (CYP2D6) [%] | Compound |
| --- | --- | --- | --- | --- | --- | --- | --- | --- | --- | --- | --- | --- | --- | --- | --- | --- |
| 88.17 | < 0.01 | 75 | > 0.5 | 41.1 | > 0.5 | 0.1 to 0.5 | 72.7 | – | – | – | – | – | – | – | – | C[C@H](Nc1nc(C(=O)N2CCCC2)c2sccc2n1)c1cncc(Cl)c1 [Example Z231, (S)-(2-((1-(5-Chloropyridin-3-yl)ethyl)amino)thieno[3,2-d]pyrimidin-4-yl)(pyrrolidin-1-yl)methanone] |
| 167.29 | < 0.01 | – | 0.05 to 0.1 | 65.9 | 0.05 to 0.1 | 0.1 to 0.5 | 16.4 | – | – | – | – | – | – | – | – | Cc1cc2nc(N[C@@H](C)c3cncc(F)c3)nc(C(=O)NC[C@H](C)O)c2s1 [Example Z277, 2-(((S)-1-(5-Fluoropyridin-3-yl)ethyl)amino)-N—((S)-2-hydroxypropyl)-6-methylthieno[3,2-d]pyrimidine-4-carboxamide] |
| 52.81 | < 0.01 | 27 | > 0.5 | 20.6 | > 0.5 | 0.1 to 0.5 | 6.78 | – | – | – | – | – | – | – | – | C[C@H](Nc1nc(C(=O)N2CC(O)C2)c2sccc2n1)c1cncc(F)c1 [Example Z198, (S)-(2-((1-(5-Fluoropyridin-3-yl)ethyl)amino)thieno[3,2-d]pyrimidin-4-yl)(3-hydroxyazetidin-1-yl)methanone] |
| 87.33 | < 0.01 | – | 0.05 to 0.1 | 43.3 | 0.05 to 0.1 | 0.05 to 0.1 | 14.8 | – | – | – | – | – | – | – | – | Cc1cc2nc(N[C@@H](C)c3cncc(F)c3)nc(C(=O)NC[C@@H](C)O)c2s1 [Example Z278, 2-(((S)-1-(5-Fluoropyridin-3-yl)ethyl)amino)-N—((R)-2-hydroxypropyl)-6-methylthieno[3,2-d]pyrimidine-4-carboxamide] |
| 19.78 | 0.01 to 0.05 | 55.9 | > 0.5 | – | > 0.5 | 0.1 to 0.5 | – | – | – | – | – | – | – | – | – | CO[C@H]1CCN(C(=O)c2nc(N[C@@H](C)c3cncc(F)c3)nc3ccsc23)C1 [Example Z252, (2-(((S)-1-(5-Fluoropyridin-3-yl)ethyl)amino)thieno[3,2-d]pyrimidin-4-yl)((S)-3-methoxypyrrolidin-1-yl)methanone] |
| 19.74 | < 0.01 | 49.1 | > 0.5 | – | > 0.5 | 0.1 to 0.5 | – | – | – | – | – | – | – | – | – | CO[C@@H]1CCN(C(=O)c2nc(N[C@@H](C)c3cncc(F)c3)nc3ccsc23)C1 [Example Z251, (2-(((S)-1-(5-Fluoropyridin-3-yl)ethyl)amino)thieno[3,2-d]pyrimidin-4-yl)((R)-3-methoxypyrrolidin-1-yl)methanone] |
| 105.81 | < 0.01 | – | 0.05 to 0.1 | 45.9 | 0.05 to 0.1 | 0.05 to 0.1 | 9.44 | – | – | – | – | – | – | – | – | Cc1cc2nc(N[C@@H](C)c3cncc(F)c3)nc(C(=O)N3CC(O)C3)c2s1 [Example Z267, (S)-(2-((1-(5-Fluoropyridin-3-yl)ethyl)amino)-6-methylthieno[3,2-d]pyrimidin-4-yl)(3-hydroxyazetidin-1-yl)methanone] |
| 1.37 | 0.01 to 0.05 | – | – | – | – | 0.01 to 0.05 | – | 63.06 | 83.4 | 0.05 to 0.1 | 42 | > 0.5 | 17.60 | 12.9 | 51 | CO[C@@H]1CCN(C(=O)c2nc(N[C@@H](C)c3cccnc3)nc3ccsc23)C1 [Example Z19, ((R)-3-Methoxypyrrolidin-1-yl)(2-(((S)-1-(pyridin-3-yl)ethyl)amino)thieno[3,2-d]pyrimidin-4-yl)methanone] |
| 197.12 | < 0.01 | – | > 0.5 | 20.9 | > 0.5 | 0.1 to 0.5 | 4.53 | – | – | – | – | – | – | – | – | Cc1cc2nc(N[C@@H](C)c3cncc(F)c3)nc(C(=O)N3CC[C@H](O)C3)c2s1 [Example Z249, (2-(((S)-1-(5-Fluoropyridin-3-yl)ethyl)amino)-6-methylthieno[3,2-d]pyrimidin-4-yl)((S)-3-hydroxypyrrolidin-1-yl)methanone] |
| 12.78 | 0.01 to 0.05 | – | – | – | – | 0.1 to 0.5 | – | 71.55 | 65.9 | > 0.5 | 83 | > 0.5 | 47.64 | 24.5 | 39 | C[C@H]1CCN(C(=O)c2nc(N[C@@H](C)c3cccnc3)nc3ccsc23)C1 [Example Z63, ((S)-3-Methylpyrrolidin-1-yl)(2-(((S)-1-(pyridin-3-yl)ethyl)amino)thieno[3,2-d]pyrimidin-4-yl)methanone] |
| 0.88 | 0.05 to 0.1 | – | – | – | – | 0.05 to 0.1 | – | 44.15 | 68.4 | > 0.5 | 52 | > 0.5 | 14.28 | 12.3 | 44 | CO[C@H]1CCN(C(=O)c2nc(N[C@@H](C)c3cccnc3)nc3ccsc23)C1 [Example Z18, ((S)-3-Methoxypyrrolidin-1-yl)(2-(((S)-1-(pyridin-3-yl)ethyl)amino)thieno[3,2-d]pyrimidin-4-yl)methanone] |
| 146.28 | 0.01 to 0.05 | – | > 0.5 | 25.7 | > 0.5 | > 0.5 | 19.5 | – | – | – | – | – | – | – | – | C[C@H](Nc1nc(C(=O)N2CC[C@H](O)C2)c2sc(C(F)(F)F)cc2n1)c1cccnc1 [Example Z333, ((S)-3-Hydroxypyrrolidin-1-yl)(2-(((S)-1-(pyridin-3-yl)ethyl)amino)-6-(trifluoromethyl)thieno[3,2-d]pyrimidin-4-yl)methanone] |
| 60.76 | 0.01 to 0.05 | – | – | – | – | > 0.5 | – | 12.51 | 25.6 | > 0.5 | 34 | > 0.5 | 10.76 | 7.12 | 5 | O=C(c1nc(NCc2cncc(F)c2)nc2ccsc12)N1CC[C@H](O)C1 [Example Z62, (S)-(2-(((5-Fluoropyridin-3-yl)methyl)amino)thieno[3,2-d]pyrimidin-4-yl)(3-hydroxypyrrolidin-1-yl)methanone] |
| 88.64 | 0.01 to 0.05 | – | > 0.5 | 18.6 | > 0.5 | > 0.5 | 5.45 | – | – | – | – | – | – | – | – | Cc1cc2nc(N[C@@H](C)c3cccnc3)nc(C(=O)N3CC[C@@H](O)C3)c2s1 [Example Z281, ((R)-3-Hydroxypyrrolidin-1-yl)(6-methyl-2-(((S)-1-(pyridin-3-yl)ethyl)amino)thieno[3,2-d]pyrimidin-4-yl)methanone] |
| 179.59 | < 0.01 | – | > 0.5 | 23.9 | > 0.5 | 0.1 to 0.5 | 11.9 | – | – | – | – | – | – | – | – | Cc1cc2nc(N[C@@H](C)c3cncc(F)c3)nc(C(=O)N3CC[C@@H](O)C3)c2s1 [Example Z250, (2-(((S)-1-(5-Fluoropyridin-3-yl)ethyl)amino)-6-methylthieno[3,2-d]pyrimidin-4-yl)((R)-3-hydroxypyrrolidin-1-yl)methanone] |
| 24.95 | 0.05 to 0.1 | – | – | – | – | > 0.5 | – | 9.22 | 44 | > 0.5 | 26 | > 0.5 | 4.28 | 4.27 | 16 | C[C@H](Nc1nc(C(=O)N2CC[C@@H](O)C2)c2sccc2n1)c1cccnc1 [Example Z29, ((R)-3-Hydroxypyrrolidin-1-yl)(2-(((S)-1-(pyridin-3-yl)ethyl)amino)thieno[3,2-d]pyrimidin-4-yl)methanone] |
| 227.82 | < 0.01 | – | > 0.5 | 22.6 | > 0.5 | > 0.5 | 3.47 | – | – | – | – | – | – | – | – | Cc1cc2nc(N[C@@H](C)c3cccnc3)nc(C(=O)N3CC[C@H](O)C3)c2s1 [Example Z297, ((S)-3-Hydroxypyrrolidin-1-yl)(6-methyl-2-(((S)-1-(pyridin-3-yl)ethyl)amino)thieno[3,2-d]pyrimidin-4-yl)methanone] |
